From US20220204473A1, “COMPOUND AS IRAK INHIBITOR” (SHANGHAI MEIYUE BIOTECH DEVELOPMENT CO., LTD., priority 2018, published 2022)

Columns and labels:
human IRAK4 = target: T1, human IRAK4 (Homo sapiens, UniProt Q9NWZ3); test: IRAK4 MSA (Mobility-Shift Assay) at Km ATP; format: biochemical; conditions: GST-IRAK4 1 nM, ATP 37 μM (Km); read-out: IC50 for inhibiting human IRAK4 kinase
T1 construct: purchased Cama (so in the source)
T1 sequence (Q9NWZ3 1-460): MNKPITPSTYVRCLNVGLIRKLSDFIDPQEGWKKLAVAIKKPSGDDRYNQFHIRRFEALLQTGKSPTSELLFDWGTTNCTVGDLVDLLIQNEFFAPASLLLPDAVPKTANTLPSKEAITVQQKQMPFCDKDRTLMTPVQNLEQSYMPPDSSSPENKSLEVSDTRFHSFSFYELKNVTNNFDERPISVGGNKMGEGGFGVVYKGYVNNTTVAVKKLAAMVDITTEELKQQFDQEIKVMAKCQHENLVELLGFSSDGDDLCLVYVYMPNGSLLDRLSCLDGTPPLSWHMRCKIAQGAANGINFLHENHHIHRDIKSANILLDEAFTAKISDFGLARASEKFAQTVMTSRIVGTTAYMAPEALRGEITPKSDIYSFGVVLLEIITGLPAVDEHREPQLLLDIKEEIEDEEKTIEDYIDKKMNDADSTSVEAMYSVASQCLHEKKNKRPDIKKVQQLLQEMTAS
Procedure: A recombinant fusion protein of N-terminal GST (glutathione-S-transferase) and human IRAK4 was used as enzyme (GST-IRAK4, kinase IRAK4 (Cama)) at a final concentration of 1 nM; ATP (Sigma) was at a final concentration of 37 μM; the substrates used for the kinase reaction were a 5-FAM (5-carboxyfluorescein)-labeled polypeptide (5-FAM-[…]-COOH) and a substrate peptide FAM-P8 (GL Biochem) at final concentrations of […].
In this assay, 500 μM solutions of the compounds were prepared in 100% DMSO, and serially 4-fold diluted to the 10th concentration gradient with 100% DMSO, followed by a 10-fold dilution in the compound buffer (50 mM HEPES. pH 7.5, 0.00015% Brij-35) to give intermediate dilutions of the compounds at a final concentration of 10 μM-0.04 nM containing 10% DMSO respectively, 5 μL of the dilutions were transferred into a black 384-well plate respectively.
IRAK4 was diluted to 2.5 nM in the kinase buffer (50 mM HEPES, pH 7.5, 0.00015% Brij-35, 2 mM DTT). 10 μL of the IRAK4 dilution was transferred to the 384-well plate and co-incubated with the compound for 10-15 min.
(§1) The substrate and ATP were diluted to 12.5 μM and 92.5 μM with reaction buffer (50 mM HEPES, pH 7.5, 0.00015% Brij-35, 10 mM MgCl2), respectively. 10 μL of the dilutions were transferred to a 384-well plate and incubated at 28° C. for 1 h respectively. The reaction was terminated by adding 25 μL of 50 mM EDTA to the 384-well plate.
The inhibition rates of IRAK4 by the compounds were calculated by measuring the rate of phosphorylated substrate using a Caliper EZ Reader (PerkinElmer) and the IC50 values were calculated by XL-fit software.

[1] = system: TNF-α release in LPS-induced Balb/c female mice; test: Inhibition of TNF-α release in LPS-induced Balb/c female mice; format: in vivo, mouse; parameters: concentration or dose not given beside the values; conditions: oral gavage 5 h before LPS induction, serum 1.5 h after stimulation
Procedure: In the normal control groups, the animals received an intraperitoneal injection of normal saline (10 mL/kg) and in the model groups, the animals received LPS stimulation (Sigma CAT #L2630, i.p., 10 mL/kg, 0.2 mg/kg). During the assay, to the test compounds, DMSO, Solutol and 10 mM PBS were sequentially added to prepare a solution or suspension of required concentration for administration. For the vehicle, DMSO, Solutol and 10 mM PBS were mixed in a volume ratio of 5:15:80. In each of the groups, the animals were administered through oral gavage (10 mL/kg) 5 h before LPS (or saline) stimulation at predetermined doses, and euthanized with CO2 at 1.5 h after the stimulation for cardiac blood collection. The whole blood was not anticoagulated, incubated in wet ice for 1.5 h, and centrifuged at 2000×g at 4° C. for 10 min to separate the serum. The serum was frozen at −80° C. for TNF-α assay. Quantification of the TNF-α was done with TNF-α ELISA kit according to the manufacturer's instruction.

[2] = system: IL-6 release in LPS-induced Balb/c female mice; test: Inhibition of IL-6 release in LPS-induced Balb/c female mice; format: in vivo, mouse; parameters: concentration or dose not given beside the values; conditions: administered 5 h before LPS induction, serum
Procedure: Objective of the test: To determine the inhibitory effect of the compounds by measuring the plasma IL-6 concentration in a Balb/c mouse model with LPS-induced inflammation.
2.1 Prepared mouse serum samples (sample batch no. 20181218)
4.1 Reagent kit was equilibrated at room temperature (25-28° C.) for 20 min. After each detection, the remaining reagents were stored at 4° C.
4.3 Preparing reference standard: 1 vial of reference standard substance was added with labeled volume of reference standard diluent. The mixtures were incubated for 15 min at room temperature. Then the mixtures were gently mixed to completely dissolve the substance to prepare a reference standard stock at a final concentration of 1000 μg/mL.
4.4 Dilution of samples: The sample in each group was diluted by […], i.e., a 2-fold dilution with sample assay buffer followed by another two-fold dilution with standard diluent.
4.5 The diluted samples or standards of different concentrations were added into corresponding wells at 100 μL/well respectively, and a background correcting well (or a blank well) was set by adding only TMB buffer and terminating solution. The wells were sealed with a transparent film and incubated at room temperature for 120 min.
4.6 The plate was subjected to 5 washes, each with 300 μL of washing buffer for 15-30 sec. The plate was dried on thick absorbent paper after the last wash.
4.7 Biotinylated antibody was added at 100 μL/well (Note: the biotinylated antibody was prepared in advance and could be used directly without further dilution). The wells were sealed with a transparent film and incubated at room temperature for 60 min.
4.8 The plate was subjected to 5 washes, each with 300 μL of washing buffer for 15-30 sec. The plate was dried on thick absorbent paper after the last wash.
4.9 Horseradish peroxidase-labeled streptavidin was added at 100 μL/well. The wells were sealed with a white film and incubated away from light at room temperature for 20 min.
4.10 The plate was subjected to 5 washes, each with 300 μL of washing buffer for 15-30 sec. The plate was dried on thick absorbent paper after the last wash.
4.11 The chromogenic reagent TMB was added 100 μL/well. The wells were sealed with a white film and incubated away from light at room temperature for 20 min.
4.12 The terminating solution was added at 50 μL/well and A450 value was measured right after mixing.

human IRAK1 = target: T2, human IRAK1 (Homo sapiens, UniProt P51617); test: IRAK1 MSA (Mobility-Shift Assay) at Km ATP; format: biochemical
T2 construct: purchased Cama (so in the source)
Procedure: 5 μL of the intermediate dilutions were transferred into a black 384-well plate.
IRAK1 was diluted to 7.5 nM in the kinase buffer (50 mM HEPES, pH 7.5, 0.00015% Brij-35, 2 mM DTT). 10 μL of the IRAK1 dilution was transferred to the 384-well plate and co-incubated with the compound for 10-15 min.
as §1, with “and 242.5” for “and 92.5”, “dilutions was” for “dilutions were”, “1 h.” for “1 h respectively.”
The inhibition rates of IRAK1 by the compounds were calculated by measuring the rate of phosphorylated substrate using a Caliper EZ Reader (PerkinElmer) and the IC50 values were calculated by XL-fit software.

T2 sequence (P51617 whole entry): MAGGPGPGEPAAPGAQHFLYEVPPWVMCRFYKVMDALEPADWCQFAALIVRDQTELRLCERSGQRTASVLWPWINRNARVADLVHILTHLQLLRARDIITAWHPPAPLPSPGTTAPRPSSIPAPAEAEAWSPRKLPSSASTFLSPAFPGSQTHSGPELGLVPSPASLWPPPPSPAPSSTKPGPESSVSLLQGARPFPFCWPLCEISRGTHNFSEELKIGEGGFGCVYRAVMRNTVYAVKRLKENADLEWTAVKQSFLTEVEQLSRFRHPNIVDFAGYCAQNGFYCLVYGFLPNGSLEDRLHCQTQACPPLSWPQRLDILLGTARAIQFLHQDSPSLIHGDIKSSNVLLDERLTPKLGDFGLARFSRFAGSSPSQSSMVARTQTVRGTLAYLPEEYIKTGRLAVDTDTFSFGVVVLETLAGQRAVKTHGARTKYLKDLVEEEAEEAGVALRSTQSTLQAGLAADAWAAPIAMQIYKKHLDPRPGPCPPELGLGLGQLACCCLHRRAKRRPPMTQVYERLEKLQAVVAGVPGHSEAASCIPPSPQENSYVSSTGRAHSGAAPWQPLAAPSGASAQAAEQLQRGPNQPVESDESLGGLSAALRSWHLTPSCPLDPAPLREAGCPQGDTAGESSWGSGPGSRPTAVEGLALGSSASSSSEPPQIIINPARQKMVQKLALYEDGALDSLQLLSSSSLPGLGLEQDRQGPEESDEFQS

IC50 (human IRAK4) [nM]	IC50 (human IRAK1) [µM]	IC50 (IRAK1)/IC50 (IRAK4) (human IRAK1; selectivity for IRAK4)	SMILES	Inhibition rate of TNF-α [1] [%]	Inhibition rate of IL-6 [2] [%]
3.6	–	–	COc1cc2nn([C@H]3C[C@H](C(C)(C)O)C3)cc2cc1NC(=O)c1cnn2cccnc12 [MY-004-075]	90.15	96.88
5.8	4.32	745	CC(C)(O)c1cc2nn([C@H]3C[C@H](C(C)(C)O)C3)cc2cc1NC(=O)c1cccc(C(F)(F)F)n1 [MY-004-109]	–	–
